Tests used:
CDC2 = CDC2 (Homo sapiens, UniProt P06493); experiment: Kinobeads competition binding, L-363 cell lysate; design: capturing and identification of kinases from L-363 cell lysate; endogenous in cells; host or cells: L-363 cells (DSMZ ACC49), pre-treated with MG132; details: 10 μM free compound, L-363 lysate
Description: (§1) To one aliquot of cell lysate 10 μM of the free compound (FIG. 3, CZC31326) was added and allowed to bind to proteins in the lysate. Then the affinity matrix with the immobilized compound was added to capture proteins that were not interacting with the previously added free compound. Beads were separated from the lysate and bead bound proteins were eluted in SDS sample buffer and subsequently separated by SDS-Polyacrylamide gel electrophoresis (FIG. 8). Suitable gel bands were cut out and subjected to in-gel proteolytic digestion with trypsin. The second lysate aliquot was processed identically, however no free compound was added (DMSO solvent control). Peptides originating from samples 1 and 2 were labeled with iTRAQ reagents (iTRAQ 114 and iTRAQ 117) and the combined samples were analyzed with a nano-flow liquid chromatography system coupled online to a tandem mass spectrometer (LC-MS/MS) experiment followed by iTRAQ reporter ion quantification in the MS/MS spectra as described in Example 2.
(§2) For this experiment the human plasma cell leukaemia line L-363 was used (German Collection of Microorganisms and Cell Cultures, DSMZ number ACC49, Braunschweig, Germany). Cells were treated for three hours with 20 μM of the proteasome inhibitor MG132 (Z-Leu-Leu-Leu-al, Sigma C2211) prior to cell harvesting.

CaMKK2 = CaMKK2 (Homo sapiens, UniProt Q96RR4); experiment: Kinobeads competition binding, L-363 cell lysate; design: capturing and identification of kinases from L-363 cell lysate; endogenous in cells; host or cells: L-363 cells (DSMZ ACC49), pre-treated with MG132; details: 10 μM free compound, L-363 lysate
Sequence of CaMKK2 (Q96RR4 whole entry): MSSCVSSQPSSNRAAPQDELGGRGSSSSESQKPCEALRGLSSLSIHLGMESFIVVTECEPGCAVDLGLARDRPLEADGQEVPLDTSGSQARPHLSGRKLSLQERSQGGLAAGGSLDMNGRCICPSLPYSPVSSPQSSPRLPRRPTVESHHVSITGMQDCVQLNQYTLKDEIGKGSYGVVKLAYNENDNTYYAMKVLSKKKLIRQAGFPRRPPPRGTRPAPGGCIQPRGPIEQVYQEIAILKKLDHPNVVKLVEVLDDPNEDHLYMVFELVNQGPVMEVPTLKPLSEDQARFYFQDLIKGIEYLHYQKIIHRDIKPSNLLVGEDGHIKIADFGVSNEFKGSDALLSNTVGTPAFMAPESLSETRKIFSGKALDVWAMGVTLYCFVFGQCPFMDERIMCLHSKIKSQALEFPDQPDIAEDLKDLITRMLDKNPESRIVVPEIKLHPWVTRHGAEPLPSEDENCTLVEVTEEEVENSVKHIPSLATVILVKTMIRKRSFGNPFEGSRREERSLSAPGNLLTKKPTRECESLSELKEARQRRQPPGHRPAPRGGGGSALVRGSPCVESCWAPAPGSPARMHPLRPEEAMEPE
Description: as §1, §2

CK2a1 = CK2a1 (Homo sapiens, UniProt P68400); experiment: Kinobeads competition binding, L-363 cell lysate; design: capturing and identification of kinases from L-363 cell lysate; endogenous in cells; host or cells: L-363 cells (DSMZ ACC49), pre-treated with MG132; details: 10 μM free compound, L-363 lysate
Sequence of CK2a1 (P68400 whole entry): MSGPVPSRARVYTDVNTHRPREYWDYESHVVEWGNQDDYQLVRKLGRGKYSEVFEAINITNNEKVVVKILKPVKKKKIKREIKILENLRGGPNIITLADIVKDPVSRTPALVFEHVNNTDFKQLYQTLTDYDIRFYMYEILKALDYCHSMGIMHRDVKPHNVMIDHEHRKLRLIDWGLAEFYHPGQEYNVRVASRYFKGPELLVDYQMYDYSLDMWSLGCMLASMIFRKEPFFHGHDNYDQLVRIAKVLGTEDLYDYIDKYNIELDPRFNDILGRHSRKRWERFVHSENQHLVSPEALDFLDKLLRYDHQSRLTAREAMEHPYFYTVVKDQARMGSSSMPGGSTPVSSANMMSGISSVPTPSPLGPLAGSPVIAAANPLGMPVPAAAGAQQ
Description: as §1, §2

STK33 = STK33 (Homo sapiens, UniProt Q9BYT3); experiment: Kinobeads competition binding, L-363 cell lysate; design: endogenous in cells; host or cells: L-363 cells (treated with MG132 before harvest); details: 10 μM free compound, L-363 lysate
Sequence of STK33 (Q9BYT3 whole entry): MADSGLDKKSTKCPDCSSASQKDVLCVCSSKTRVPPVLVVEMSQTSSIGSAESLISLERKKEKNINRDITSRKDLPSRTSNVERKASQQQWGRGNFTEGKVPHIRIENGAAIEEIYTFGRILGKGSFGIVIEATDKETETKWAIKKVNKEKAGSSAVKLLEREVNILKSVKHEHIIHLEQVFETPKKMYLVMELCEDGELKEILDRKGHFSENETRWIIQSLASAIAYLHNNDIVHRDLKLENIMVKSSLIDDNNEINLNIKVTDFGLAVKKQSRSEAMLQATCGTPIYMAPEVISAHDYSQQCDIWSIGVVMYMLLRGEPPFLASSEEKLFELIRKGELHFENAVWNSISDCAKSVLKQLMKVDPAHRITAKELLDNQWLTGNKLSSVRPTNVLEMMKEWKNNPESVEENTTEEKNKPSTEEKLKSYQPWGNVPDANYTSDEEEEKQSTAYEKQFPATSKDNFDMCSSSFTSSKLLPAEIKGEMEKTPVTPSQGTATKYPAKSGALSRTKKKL
Description: as §1, §2

PLK4 = PLK4 (Homo sapiens, UniProt O00444); experiment: Kinobeads competition binding, L-363 cell lysate; design: endogenous in cells; host or cells: L-363 cells (treated with MG132 before harvest); details: 10 μM free compound, L-363 lysate
Sequence of PLK4 (O00444 whole entry): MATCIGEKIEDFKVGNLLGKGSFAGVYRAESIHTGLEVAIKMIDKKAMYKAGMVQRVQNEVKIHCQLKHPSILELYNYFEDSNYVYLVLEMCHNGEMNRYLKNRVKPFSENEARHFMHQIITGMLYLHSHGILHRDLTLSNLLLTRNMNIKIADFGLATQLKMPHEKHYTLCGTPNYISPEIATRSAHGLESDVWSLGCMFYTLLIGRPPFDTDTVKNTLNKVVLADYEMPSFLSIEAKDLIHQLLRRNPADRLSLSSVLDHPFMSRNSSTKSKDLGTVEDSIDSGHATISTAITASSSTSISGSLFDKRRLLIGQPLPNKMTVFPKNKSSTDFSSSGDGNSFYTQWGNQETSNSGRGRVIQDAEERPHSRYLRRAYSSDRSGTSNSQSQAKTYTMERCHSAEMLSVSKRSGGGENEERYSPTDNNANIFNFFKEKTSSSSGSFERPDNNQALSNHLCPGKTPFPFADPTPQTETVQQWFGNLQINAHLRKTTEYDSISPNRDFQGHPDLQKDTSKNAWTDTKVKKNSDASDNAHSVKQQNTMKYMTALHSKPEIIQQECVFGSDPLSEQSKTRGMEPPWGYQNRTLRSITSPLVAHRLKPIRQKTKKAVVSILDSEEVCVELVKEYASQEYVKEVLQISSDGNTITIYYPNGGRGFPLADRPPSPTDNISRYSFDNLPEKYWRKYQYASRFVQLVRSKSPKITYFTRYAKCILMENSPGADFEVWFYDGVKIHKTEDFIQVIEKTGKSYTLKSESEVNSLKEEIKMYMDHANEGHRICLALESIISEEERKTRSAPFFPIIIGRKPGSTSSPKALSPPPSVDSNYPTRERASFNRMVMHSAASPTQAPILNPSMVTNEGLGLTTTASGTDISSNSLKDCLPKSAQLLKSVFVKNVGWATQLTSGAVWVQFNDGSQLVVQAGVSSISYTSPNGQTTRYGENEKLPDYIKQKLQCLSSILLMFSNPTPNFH
Description: as §1, §2

PITSLRE = experiment: Kinobeads competition binding, HL60 cell lysate; design: species or system human; details: 10 μM free compound
Description: To one aliquot of cell lysate 10 μM of the free compound (FIG. 3, CZC31326) was added and allowed to bind to proteins in the lysate. Then the affinity matrix with the immobilized compound (Example 1) was added to capture proteins that were not interacting with the previously added free compound. Beads were separated from the lysate and bead bound proteins were eluted in SDS sample buffer and subsequently separated by SDS-Polyacrylamide gel electrophoresis (FIG. 4). Suitable gel bands were cut out and subjected to in-gel proteolytic digestion with trypsin. The second lysate aliquot was processed identically, however no free compound was added (DMSO solvent control). Peptides originating from samples 1 and 2 were labeled with iTRAQ reagents (iTRAQ 114 and iTRAQ 117) and the combined samples were analyzed with a nano-flow liquid chromatography system coupled online to a tandem mass spectrometer (LC-MS/MS) experiment followed by iTRAQ reporter ion quantification in the MS/MS spectra (Ross et al., 2004. Mol. Cell. Proteomics 3(12):1154-1169). […] The iTRAQ reagents are a set of multiplexed, amine-specific, stable isotope reagents that can label peptides on amino groups in up to four different biological samples enabling simultaneous identification and quantitation of peptides. […]

MAP3K3 = MAP3K3 (Homo sapiens, UniProt Q99759); experiment: Kinobeads competition binding, L-363 cell lysate; design: endogenous in cells; host or cells: L-363 cells (DSMZ ACC49), treated with MG132 before harvest; details: 10 μM free compound, L-363 lysate
Sequence of MAP3K3 (Q99759 whole entry): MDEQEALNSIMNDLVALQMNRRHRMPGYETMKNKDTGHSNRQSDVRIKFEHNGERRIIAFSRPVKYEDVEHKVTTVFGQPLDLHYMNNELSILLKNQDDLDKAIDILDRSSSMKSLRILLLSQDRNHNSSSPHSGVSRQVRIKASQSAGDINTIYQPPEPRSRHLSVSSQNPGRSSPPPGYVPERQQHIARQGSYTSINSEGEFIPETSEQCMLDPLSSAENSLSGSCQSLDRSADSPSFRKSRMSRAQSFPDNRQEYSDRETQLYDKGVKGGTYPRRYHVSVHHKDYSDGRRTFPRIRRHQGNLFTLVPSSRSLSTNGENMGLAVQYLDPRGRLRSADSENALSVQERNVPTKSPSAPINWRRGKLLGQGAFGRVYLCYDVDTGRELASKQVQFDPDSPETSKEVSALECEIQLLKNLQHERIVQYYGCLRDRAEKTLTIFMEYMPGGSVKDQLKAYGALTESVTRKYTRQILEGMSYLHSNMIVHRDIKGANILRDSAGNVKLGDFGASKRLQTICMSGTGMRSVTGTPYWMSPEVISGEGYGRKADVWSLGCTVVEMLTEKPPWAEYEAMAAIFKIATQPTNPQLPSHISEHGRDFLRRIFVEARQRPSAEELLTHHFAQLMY
Description: as §1, §2

MAP3K1 = MAP3K1 (Homo sapiens, UniProt Q13233); experiment: Kinobeads competition binding, L-363 cell lysate; design: endogenous in cells; host or cells: L-363 cells (DSMZ ACC49), treated with MG132 before harvest; details: 10 μM free compound, L-363 lysate
Sequence of MAP3K1 (Q13233 whole entry): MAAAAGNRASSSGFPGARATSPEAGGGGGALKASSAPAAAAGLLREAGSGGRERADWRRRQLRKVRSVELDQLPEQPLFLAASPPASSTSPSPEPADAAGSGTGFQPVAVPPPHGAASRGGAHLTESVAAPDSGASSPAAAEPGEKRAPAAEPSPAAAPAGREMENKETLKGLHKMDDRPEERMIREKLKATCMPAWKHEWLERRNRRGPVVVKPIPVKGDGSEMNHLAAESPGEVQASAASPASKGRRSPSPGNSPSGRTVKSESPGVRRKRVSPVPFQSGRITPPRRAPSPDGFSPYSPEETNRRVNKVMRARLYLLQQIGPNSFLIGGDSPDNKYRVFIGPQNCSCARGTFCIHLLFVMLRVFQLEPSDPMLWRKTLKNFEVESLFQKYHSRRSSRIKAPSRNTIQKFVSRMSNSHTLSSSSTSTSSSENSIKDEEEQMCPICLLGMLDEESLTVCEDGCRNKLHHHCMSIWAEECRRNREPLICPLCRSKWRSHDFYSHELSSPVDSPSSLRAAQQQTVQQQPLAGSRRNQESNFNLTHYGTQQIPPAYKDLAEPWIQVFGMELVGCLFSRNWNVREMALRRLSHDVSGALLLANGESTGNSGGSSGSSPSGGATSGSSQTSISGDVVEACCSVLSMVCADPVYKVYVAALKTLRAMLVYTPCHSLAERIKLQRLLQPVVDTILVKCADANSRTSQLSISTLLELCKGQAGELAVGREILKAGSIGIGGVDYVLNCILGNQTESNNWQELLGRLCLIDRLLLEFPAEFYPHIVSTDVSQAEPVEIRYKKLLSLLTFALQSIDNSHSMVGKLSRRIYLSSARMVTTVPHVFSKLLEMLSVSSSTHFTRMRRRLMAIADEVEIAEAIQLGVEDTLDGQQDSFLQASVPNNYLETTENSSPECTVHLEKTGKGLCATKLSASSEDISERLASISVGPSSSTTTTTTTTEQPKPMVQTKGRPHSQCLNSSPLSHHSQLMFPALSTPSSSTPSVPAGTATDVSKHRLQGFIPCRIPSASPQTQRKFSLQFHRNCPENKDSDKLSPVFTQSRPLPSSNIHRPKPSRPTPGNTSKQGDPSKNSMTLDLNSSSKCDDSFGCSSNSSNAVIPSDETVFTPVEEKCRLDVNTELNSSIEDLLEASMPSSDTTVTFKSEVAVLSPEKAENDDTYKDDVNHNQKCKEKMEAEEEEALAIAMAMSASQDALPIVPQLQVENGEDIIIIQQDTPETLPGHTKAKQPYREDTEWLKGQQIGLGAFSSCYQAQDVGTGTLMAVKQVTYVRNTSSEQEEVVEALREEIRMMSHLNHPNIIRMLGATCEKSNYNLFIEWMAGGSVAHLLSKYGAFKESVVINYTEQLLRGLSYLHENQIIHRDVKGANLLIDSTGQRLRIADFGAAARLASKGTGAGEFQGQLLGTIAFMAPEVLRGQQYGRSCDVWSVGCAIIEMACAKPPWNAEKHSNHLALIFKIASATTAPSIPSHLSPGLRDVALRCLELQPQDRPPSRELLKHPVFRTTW
Description: as §1, §2

Sequence of CDC2 (P06493 whole entry): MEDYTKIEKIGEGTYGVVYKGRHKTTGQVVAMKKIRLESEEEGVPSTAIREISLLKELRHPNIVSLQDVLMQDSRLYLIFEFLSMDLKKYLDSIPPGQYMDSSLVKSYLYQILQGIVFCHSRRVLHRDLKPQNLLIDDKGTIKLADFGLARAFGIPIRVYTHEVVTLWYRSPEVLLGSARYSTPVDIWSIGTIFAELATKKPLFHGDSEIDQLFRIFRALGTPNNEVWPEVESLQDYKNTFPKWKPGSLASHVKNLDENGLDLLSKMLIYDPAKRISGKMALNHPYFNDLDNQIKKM

Question: `CS(=O)(=O)Nc1ccccc1Nc1nc(Nc2cccc(OCCN)c2)ncc1Cl` [CZC31326, N-(2-(2-(3-(2-aminoethoxy)phenylamino)-5-chloropyrimidin-4-ylamino)phenyl)methanesulfonamide] was tested. Which inhibition at 10 µM (CDC2) did it give?
Answer: The inhibition at 10 µM was 95.1%.

Question: What about the inhibition at 10 µM (CaMKK2) of the same molecule?
Answer: The inhibition at 10 µM was 97%.

Question: What about the inhibition at 10 µM (CK2a1) of the same molecule?
Answer: The inhibition at 10 µM was 97.9%.

Question: And the inhibition at 10 µM (STK33)?
Answer: Its inhibition at 10 µM is 95.7%.

Question: What about the inhibition at 10 µM (PLK4) of the same molecule?
Answer: Its inhibition at 10 µM is 91.2%.

Question: What about the Competition % (PITSLRE) of the same molecule?
Answer: Its Competition % is 94.8%.

Question: What about the inhibition at 10 µM (MAP3K3) of the same molecule?
Answer: The inhibition at 10 µM was 97.4%.

Question: And the inhibition at 10 µM (MAP3K1)?
Answer: The inhibition at 10 µM was 96.2%.

Source: patent US20120270237A9, “METHODS FOR THE IDENTIFICATION OF KINASE INTERACTING MOLECULES AND FOR THE PURIFICATION OF KINASE PROTEINS” (Cellzone AG, priority 2009, published 2012)
